According to the NIST ThermoML archive (doi:10.1016/j.jct.2007.11.002):
± gives the expanded uncertainty stated by the source.

Assay: xn = mol fraction of the nth substance listed
Settings: 101 kPa, Liquid; for viscosity: Capillary tube (Ostwald / Ubbelohde) method

CN1CCOCC1 [N-methylmorpholine] + c1ccccc1
Settings	mass density, 298.15 K [kg/m3]	mass density, 303.15 K [kg/m3]	viscosity, 298.15 K [mPa·s]	viscosity, 303.15 K [mPa·s]
x2 = 0.0554	912.69 ± 1	907.91 ± 1	0.847 ± 0.011	0.836 ± 0.011
x2 = 0.1167	911.11 ± 0.93	906.07 ± 0.93	0.814 ± 0.011	0.805 ± 0.01
x2 = 0.1798	909.39 ± 0.86	904.33 ± 0.87	0.783 ± 0.01	0.772 ± 0.01
x2 = 0.2477	907.18 ± 0.8	902.35 ± 0.81	0.753 ± 0.009	0.741 ± 0.009
x2 = 0.2855	906.2 ± 0.77	901.15 ± 0.78	0.737 ± 0.009	0.725 ± 0.009
x2 = 0.3422	904.33 ± 0.72	899.41 ± 0.73	0.715 ± 0.009	0.7 ± 0.009
x2 = 0.3762	903.31 ± 0.7	898.32 ± 0.71	0.704 ± 0.009	0.688 ± 0.009
x2 = 0.4244	901.72 ± 0.66	896.71 ± 0.67	0.687 ± 0.008	0.671 ± 0.008
x2 = 0.479	899.69 ± 0.63	894.8 ± 0.64	0.672 ± 0.008	0.656 ± 0.008
x2 = 0.5466	897 ± 0.59	892.15 ± 0.6	0.655 ± 0.008	0.637 ± 0.008
x2 = 0.5911	895.2 ± 0.57	890.3 ± 0.58	0.646 ± 0.008	0.628 ± 0.008
x2 = 0.6201	893.8 ± 0.56	889.05 ± 0.57	0.641 ± 0.008	0.622 ± 0.008
x2 = 0.6822	891 ± 0.54	886.21 ± 0.55	0.631 ± 0.008	0.61 ± 0.007
x2 = 0.7094	889.5 ± 0.53	884.9 ± 0.54	0.628 ± 0.007	0.606 ± 0.007
x2 = 0.7655	886.8 ± 0.51	882.04 ± 0.52	0.625 ± 0.007	0.6 ± 0.007
x2 = 0.7901	885.2 ± 0.51	880.63 ± 0.52	0.621 ± 0.007	0.597 ± 0.007
x2 = 0.8439	882.2 ± 0.5	877.64 ± 0.51	0.618 ± 0.007	0.589 ± 0.007
x2 = 0.8933	879.6 ± 0.49	874.81 ± 0.5	0.613 ± 0.007	0.583 ± 0.007
x2 = 0.9278	877.5 ± 0.49	872.82 ± 0.5	0.61 ± 0.007	0.578 ± 0.007
x2 = 0.9641	875.4 ± 0.49	870.63 ± 0.5	0.606 ± 0.007	0.571 ± 0.007
